Active and inactive are the calls of the source.
Columns and labels:
[1] = target: Glyceraldehyde-3-phosphate dehydrogenase (Homo sapiens, UniProt P04406)
[2] = target: T1, Alkaline phosphatase, tissue-nonspecific isozyme (Homo sapiens, UniProt P05186); experiment: potency against alkaline phosphatase TNAP – biochemical, luminescent, dose response, SAR follow-up (AID 1056)
T1 sequence (P05186 whole entry): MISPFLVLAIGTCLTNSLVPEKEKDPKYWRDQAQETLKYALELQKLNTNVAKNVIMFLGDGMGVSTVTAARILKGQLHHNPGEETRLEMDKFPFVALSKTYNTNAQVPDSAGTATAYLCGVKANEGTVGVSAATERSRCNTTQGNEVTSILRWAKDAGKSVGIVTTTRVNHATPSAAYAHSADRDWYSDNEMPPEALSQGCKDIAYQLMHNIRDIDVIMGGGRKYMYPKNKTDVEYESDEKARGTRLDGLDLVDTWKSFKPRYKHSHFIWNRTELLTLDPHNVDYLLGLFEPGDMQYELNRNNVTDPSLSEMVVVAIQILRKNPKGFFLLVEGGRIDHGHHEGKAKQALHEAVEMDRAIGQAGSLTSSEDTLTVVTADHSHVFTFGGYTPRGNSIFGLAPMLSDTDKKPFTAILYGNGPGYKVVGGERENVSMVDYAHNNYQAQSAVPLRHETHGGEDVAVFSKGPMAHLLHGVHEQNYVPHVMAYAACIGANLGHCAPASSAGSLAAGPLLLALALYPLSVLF

[3] = target: T2, Corticotropin-releasing factor receptor 2/Corticotropin-releasing factor-binding protein (Homo sapiens, UniProt P24387+Q13324); experiment: Dose Response confirmation of uHTS hits for small molecule antagonists of the CRF-binding protein and CRF-R2 receptor complex.; type: functional; details: read-out: IC50_Mean
T2 sequence (Q13324 whole entry): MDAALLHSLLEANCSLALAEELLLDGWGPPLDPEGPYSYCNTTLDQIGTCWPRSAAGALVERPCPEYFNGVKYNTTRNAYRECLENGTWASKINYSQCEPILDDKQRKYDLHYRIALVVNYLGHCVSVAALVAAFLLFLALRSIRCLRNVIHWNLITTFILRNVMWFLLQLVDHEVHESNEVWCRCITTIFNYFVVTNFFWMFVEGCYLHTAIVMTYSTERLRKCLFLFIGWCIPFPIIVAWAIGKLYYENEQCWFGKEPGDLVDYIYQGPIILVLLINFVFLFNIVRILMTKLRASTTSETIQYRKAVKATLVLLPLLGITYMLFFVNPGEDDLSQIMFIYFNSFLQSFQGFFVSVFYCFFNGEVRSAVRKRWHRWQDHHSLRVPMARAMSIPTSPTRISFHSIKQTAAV
T2 sequence (P24387 whole entry): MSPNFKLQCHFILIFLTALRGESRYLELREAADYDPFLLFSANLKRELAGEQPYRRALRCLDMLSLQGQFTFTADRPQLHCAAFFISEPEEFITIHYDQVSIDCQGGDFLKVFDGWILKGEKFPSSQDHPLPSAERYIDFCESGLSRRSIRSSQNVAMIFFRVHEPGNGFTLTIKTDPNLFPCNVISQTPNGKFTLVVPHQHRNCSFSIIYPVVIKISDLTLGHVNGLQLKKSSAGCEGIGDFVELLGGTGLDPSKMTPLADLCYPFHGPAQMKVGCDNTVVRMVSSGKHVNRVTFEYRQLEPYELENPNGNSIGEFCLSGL

[4] = target: T2, Corticotropin-releasing factor receptor 2/Corticotropin-releasing factor-binding protein; experiment: activators of CRF receptor 2 with binding protein – uHTS hits, confirmation (AID 602473); type: functional; details: read-out: EC50_Mean
[5] = blockers of CRF-binding protein–CRF-R2 complex – cell-based, uHTS hits, 384-well, dose response (AID 651639); type: functional, Homo sapiens; details: read-out: IC50_Mean
[6] = Luminescence Cell-Based Dose Retest to Confirm Inhibitors of Cancer Stem Cells. [Related pubchem assays (depositor defined):AID2717, AID2721]; type: functional; details: Homo sapiens
[7] = target: Neurotensin receptor type 1 (Homo sapiens, UniProt P30989); type: functional;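 note: Image-based confirmatory dose-response assay measuring agonist activity at NTR1; NTR1-expressing U2OS osteosarcoma cells imaged for beta-arrestin GFP spot formation; agonist potency where compounds increase beta-arrestin recruitment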
[8] = tested on: INS1; experiment: INS-1E survival protection against cytokine death – cell-based, luminescence, retest, dose response (AID 449756); type: functional; details: Rattus norvegicus;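 note: cell death triggered by IL-1 beta plus TNF-alpha plus IFN-gamma mixture; protective hits raise ATP signal compared with cytokine alone wells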
[9] = reduction of Shn3 3'UTR-driven luciferase in osteoblasts – cell-based, Clone20 osteoblasts, firefly luciferase, cherry-picked, dose response (AID 624132); type: functional;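 note: firefly luciferase luminescence from reporter carrying the Shn3 3'UTR in osteoblasts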
[10] = loss of viability in HepG2 cells – cell-based, CellTiter-Glo, cherry-picked, cytotoxicity control for Shn3 inhibitor project, dose response (AID 624134); type: functional
[11] = non-specific 3'UTR reporter inhibition in Clone20-Shn3RL – cell-based, Renilla luciferase, cherry-picked, counter-screen for Shn3 inhibitor project, dose response (AID 624133); type: functional
[12] = A Cell Based Secondary Assay to Explore Cytotoxicity in THP-1 Cells of Compounds that Modulate Mycobacterium tuberculosis in Media Containing Glycerol versus Media without Glycerol (2).; type: functional
[13] = Vero cell cytotoxicity, cytotoxicity control for M. tuberculosis inhibitor project, purified and synthesized samples, set 3 (AID 504684); type: functional
[14] = target: Peroxisome proliferator-activated receptor gamma/Nuclear receptor coactivator 2 (Homo sapiens, UniProt P37231); type: functional;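 note: agonist potency for raising coactivator recruitment to the receptor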
Peroxisome proliferator-activated receptor gamma/Nuclear receptor coactivator 2, sequence (P37231 whole entry): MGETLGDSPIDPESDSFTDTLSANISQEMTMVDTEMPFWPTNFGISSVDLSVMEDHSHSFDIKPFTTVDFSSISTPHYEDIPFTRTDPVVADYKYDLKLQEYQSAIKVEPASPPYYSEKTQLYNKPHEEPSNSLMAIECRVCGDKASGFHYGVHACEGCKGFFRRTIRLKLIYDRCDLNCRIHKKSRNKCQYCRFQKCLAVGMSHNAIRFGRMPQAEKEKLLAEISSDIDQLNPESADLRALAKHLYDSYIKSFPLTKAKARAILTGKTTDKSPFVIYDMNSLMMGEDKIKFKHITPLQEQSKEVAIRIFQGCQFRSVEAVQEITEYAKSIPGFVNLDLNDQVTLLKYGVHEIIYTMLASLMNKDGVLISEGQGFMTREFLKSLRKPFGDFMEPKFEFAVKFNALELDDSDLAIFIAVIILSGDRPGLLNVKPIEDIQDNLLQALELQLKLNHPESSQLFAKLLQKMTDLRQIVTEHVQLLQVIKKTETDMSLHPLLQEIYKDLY
Peroxisome proliferator-activated receptor gamma/Nuclear receptor coactivator 2, sequence (Q15596 whole entry, further chain): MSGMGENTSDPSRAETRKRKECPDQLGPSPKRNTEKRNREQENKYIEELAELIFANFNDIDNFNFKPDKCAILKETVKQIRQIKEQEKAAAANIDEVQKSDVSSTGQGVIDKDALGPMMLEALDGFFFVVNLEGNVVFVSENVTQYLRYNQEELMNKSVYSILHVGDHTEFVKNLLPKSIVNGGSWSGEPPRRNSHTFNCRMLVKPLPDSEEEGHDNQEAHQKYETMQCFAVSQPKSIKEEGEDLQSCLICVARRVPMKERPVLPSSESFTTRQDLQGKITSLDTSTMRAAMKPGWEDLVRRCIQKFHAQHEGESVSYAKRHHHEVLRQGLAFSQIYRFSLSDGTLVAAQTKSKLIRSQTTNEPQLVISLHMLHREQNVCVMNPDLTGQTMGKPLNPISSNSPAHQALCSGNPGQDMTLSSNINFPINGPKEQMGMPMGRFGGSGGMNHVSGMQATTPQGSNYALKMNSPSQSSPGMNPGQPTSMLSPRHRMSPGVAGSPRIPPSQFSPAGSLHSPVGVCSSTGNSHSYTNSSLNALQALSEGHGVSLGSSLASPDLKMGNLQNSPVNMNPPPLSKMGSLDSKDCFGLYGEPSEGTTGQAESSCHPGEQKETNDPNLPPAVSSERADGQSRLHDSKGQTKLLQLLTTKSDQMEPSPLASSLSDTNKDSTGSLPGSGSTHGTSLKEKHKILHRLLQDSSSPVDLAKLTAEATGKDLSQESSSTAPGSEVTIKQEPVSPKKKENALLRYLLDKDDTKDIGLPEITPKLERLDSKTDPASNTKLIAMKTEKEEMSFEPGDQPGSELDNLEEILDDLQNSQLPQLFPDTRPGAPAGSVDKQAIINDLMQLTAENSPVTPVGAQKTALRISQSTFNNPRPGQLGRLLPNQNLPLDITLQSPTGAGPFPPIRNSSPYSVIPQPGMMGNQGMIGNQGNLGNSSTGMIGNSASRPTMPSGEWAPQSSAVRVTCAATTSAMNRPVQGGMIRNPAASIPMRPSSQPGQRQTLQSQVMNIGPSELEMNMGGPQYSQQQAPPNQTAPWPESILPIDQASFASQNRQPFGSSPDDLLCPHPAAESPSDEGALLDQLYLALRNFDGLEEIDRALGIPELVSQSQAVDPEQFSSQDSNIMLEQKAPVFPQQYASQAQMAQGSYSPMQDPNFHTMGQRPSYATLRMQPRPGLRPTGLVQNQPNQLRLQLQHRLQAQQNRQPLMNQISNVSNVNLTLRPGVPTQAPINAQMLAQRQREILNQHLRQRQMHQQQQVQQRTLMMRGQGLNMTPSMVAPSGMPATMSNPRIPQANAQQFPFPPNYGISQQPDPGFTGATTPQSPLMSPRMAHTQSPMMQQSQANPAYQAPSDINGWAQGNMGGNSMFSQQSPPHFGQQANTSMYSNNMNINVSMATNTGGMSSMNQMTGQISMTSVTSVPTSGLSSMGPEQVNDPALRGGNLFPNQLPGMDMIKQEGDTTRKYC

[15] = target: Peroxisome proliferator-activated receptor gamma/Nuclear receptor coactivator 1 (Homo sapiens, UniProt P37231); type: functional;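 note: agonist potency as compounds enhance coactivator SRC-1 recruitment to PPARgamma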
Peroxisome proliferator-activated receptor gamma/Nuclear receptor coactivator 1, sequence (P37231 whole entry): as the sequence (P37231 whole entry) above
Peroxisome proliferator-activated receptor gamma/Nuclear receptor coactivator 1, sequence (Q15788 whole entry, further chain): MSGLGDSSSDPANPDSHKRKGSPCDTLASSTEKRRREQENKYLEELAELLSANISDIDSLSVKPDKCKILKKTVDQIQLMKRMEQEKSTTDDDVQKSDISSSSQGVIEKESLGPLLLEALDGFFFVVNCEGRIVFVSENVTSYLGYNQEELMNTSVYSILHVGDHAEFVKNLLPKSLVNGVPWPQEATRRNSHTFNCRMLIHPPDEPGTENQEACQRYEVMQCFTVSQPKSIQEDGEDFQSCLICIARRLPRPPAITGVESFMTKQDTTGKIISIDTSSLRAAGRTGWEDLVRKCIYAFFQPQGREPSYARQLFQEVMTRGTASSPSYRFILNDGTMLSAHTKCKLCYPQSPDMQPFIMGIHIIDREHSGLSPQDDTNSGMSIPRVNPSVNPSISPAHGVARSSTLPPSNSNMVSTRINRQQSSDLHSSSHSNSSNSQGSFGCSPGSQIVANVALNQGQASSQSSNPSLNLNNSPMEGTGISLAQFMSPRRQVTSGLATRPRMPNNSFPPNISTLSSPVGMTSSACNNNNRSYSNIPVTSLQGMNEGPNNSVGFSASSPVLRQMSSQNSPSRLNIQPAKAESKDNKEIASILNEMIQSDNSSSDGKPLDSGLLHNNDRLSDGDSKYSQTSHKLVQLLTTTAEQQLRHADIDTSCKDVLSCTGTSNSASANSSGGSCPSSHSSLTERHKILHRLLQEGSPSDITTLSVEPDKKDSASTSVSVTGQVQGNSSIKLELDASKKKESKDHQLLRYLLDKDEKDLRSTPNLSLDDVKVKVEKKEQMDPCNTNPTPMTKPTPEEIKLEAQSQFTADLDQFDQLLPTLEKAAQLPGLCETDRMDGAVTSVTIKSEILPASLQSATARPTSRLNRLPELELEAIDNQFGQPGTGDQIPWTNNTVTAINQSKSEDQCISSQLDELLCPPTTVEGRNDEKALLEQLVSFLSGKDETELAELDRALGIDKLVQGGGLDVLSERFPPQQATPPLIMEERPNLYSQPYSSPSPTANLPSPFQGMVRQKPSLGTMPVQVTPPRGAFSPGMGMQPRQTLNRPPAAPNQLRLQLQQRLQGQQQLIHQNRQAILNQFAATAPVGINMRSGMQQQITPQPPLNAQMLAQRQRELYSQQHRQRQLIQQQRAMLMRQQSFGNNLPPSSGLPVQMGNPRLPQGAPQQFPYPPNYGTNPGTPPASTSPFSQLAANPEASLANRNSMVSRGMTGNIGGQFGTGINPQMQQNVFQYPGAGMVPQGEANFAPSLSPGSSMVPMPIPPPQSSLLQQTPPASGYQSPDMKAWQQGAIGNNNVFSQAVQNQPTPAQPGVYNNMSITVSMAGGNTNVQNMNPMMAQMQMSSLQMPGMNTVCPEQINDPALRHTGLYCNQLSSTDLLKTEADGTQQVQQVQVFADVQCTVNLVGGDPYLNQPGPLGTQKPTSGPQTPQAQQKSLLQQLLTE

[16] = target: Peroxisome proliferator-activated receptor gamma/Nuclear receptor coactivator 3 (Homo sapiens, UniProt P37231); type: functional;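 note: agonist potency for raising coactivator recruitment to the receptor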
[17] = tested on: BJ; experiment: BJ-TERT fibroblast viability loss – cell-based, RAS-independent, luminescence, dose response (AID 1933); type: functional; details: Homo sapiens
[18] = tested on: BJ; experiment: cells; type: functional, cell-based; details: Homo sapiens
[19] = tested on: BJ; experiment: BJ-TERT-LT-ST fibroblast viability loss – cell-based, RAS-independent, luminescence, dose response (AID 1935); type: functional; details: Homo sapiens;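 note: BJ fibroblasts immortalized with TERT plus LT and ST oncogenes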
[20] = DRD fibroblast viability loss – cell-based, non-viral oncogenic, luminescence, dose response (AID 1934); type: functional; details: Homo sapiens
[21] = target: Eukaryotic translation initiation factor 4E (Mus musculus, UniProt P63073); experiment: blockers of eIF4G binding by eIF4E – biochemical, TR-FRET, dose response (AID 855); type: functional;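 note: potency for disrupting eIF4E binding to eIF4GI seen as loss of FRET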
Eukaryotic translation initiation factor 4E, sequence (P63073 whole entry): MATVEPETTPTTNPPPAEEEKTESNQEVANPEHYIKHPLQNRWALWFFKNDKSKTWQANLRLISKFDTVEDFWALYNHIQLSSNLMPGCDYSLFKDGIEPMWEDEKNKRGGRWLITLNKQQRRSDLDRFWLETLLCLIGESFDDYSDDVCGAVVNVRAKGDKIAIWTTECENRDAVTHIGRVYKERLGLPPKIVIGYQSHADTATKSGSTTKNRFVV

[22] = target: T3, Coagulation factor XII (Homo sapiens, UniProt P00748); type: functional;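 note: activated factor XIIa alpha cleaving a fluorogenic AMC peptide substrate; inhibitor potency from loss of enzyme activity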
T3 sequence (P00748 whole entry): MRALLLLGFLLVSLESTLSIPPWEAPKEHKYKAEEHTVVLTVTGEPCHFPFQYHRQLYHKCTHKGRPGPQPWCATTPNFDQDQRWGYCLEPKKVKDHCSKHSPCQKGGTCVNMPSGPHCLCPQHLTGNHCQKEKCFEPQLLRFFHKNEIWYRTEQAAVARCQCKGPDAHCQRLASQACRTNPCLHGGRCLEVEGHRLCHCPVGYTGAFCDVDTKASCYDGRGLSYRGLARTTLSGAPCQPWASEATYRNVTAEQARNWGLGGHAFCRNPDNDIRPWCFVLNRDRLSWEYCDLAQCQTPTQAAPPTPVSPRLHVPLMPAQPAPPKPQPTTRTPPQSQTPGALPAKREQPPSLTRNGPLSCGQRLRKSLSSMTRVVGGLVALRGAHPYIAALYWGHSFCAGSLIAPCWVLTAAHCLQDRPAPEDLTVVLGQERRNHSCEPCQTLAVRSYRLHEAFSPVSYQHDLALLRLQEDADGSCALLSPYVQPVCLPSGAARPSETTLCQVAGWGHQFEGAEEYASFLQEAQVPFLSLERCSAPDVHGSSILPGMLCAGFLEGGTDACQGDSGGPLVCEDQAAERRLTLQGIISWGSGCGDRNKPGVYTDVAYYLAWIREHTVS

[23] = target: T4, RNA-binding protein pos-1 (Caenorhabditis elegans, UniProt G5EF15); experiment: disruptors of C. elegans POS-1 RNA interaction – biochemical, fluorescence polarization, dose response (AID 1964);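 note: purified POS-1 fused to maltose binding protein made in E. coli; potency of compounds blocking POS-1 binding to fluorescent RNA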
T4 sequence (G5EF15 whole entry): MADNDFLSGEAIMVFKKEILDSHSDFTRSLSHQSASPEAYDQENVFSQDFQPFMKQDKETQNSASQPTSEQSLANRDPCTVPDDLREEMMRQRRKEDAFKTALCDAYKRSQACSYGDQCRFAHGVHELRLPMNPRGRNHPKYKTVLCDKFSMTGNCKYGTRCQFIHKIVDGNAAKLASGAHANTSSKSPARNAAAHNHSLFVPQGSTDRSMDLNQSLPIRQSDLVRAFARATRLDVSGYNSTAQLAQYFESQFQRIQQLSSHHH

[24] = target: T5, Zinc finger protein mex-5 (Caenorhabditis elegans, UniProt Q9XUB2); experiment: potency of MEX-5 RNA-binding blockers – biochemical, C. elegans, fluorescence polarization, dose response (AID 1960)
T5 sequence (Q9XUB2 whole entry): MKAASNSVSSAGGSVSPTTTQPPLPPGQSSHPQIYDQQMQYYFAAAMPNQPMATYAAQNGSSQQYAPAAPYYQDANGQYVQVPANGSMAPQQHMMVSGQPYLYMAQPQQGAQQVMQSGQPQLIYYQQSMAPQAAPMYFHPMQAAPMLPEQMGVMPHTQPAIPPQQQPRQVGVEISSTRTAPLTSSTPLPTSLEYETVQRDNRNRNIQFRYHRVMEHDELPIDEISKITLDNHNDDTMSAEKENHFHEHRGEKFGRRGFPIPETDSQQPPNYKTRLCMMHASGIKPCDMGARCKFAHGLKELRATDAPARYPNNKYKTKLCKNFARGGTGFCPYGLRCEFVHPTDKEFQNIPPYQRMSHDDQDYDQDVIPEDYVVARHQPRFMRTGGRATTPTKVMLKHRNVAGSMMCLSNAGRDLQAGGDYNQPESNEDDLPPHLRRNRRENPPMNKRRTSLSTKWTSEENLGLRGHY

[25] = target: Melanocortin receptor 4 (Homo sapiens, UniProt P32245); experiment: inhibitors of MC4R cAMP signaling – cell-based, TR-FRET, biased antagonists, dose response (AID 602298); type: functional;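 note: antagonist potency against agonist-stimulated cAMP production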
Melanocortin receptor 4, sequence (P32245 whole entry): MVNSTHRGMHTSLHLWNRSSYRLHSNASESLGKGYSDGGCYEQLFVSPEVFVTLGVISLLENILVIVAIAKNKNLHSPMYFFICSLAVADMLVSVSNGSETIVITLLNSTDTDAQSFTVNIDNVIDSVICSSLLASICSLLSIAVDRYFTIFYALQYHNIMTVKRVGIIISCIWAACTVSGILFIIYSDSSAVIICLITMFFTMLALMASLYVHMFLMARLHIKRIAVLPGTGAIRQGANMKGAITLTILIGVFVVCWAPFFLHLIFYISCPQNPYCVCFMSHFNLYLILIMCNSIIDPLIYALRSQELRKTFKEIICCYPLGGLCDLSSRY

[26] = cAMP pathway inhibition in counterscreen cell line – TR-FRET cAMP detection, counter-screen for MC4R biased antagonist project, dose response (AID 602305); type: functional, cell-based;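 note: U2OS cells stimulated with forskolin near its EC80 as the cAMP inducer; potency is for inhibition of forskolin-stimulated cAMP signaling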

Glyceraldehyde-3-phosphate dehydrogenase, sequence (P04406 whole entry): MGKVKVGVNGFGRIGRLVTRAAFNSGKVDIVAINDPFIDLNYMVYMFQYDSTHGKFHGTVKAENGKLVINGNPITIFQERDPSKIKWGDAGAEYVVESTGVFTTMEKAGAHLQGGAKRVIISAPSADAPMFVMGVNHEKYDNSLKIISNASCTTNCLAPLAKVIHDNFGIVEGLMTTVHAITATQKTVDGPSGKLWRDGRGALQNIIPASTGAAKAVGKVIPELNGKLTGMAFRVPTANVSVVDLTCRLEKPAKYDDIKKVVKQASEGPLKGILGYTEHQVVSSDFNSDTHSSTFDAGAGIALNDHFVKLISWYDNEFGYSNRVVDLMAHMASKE

SMILES: Cc1ccc(S(=O)(=O)Nc2nc3ccccc3nc2Cl)cc1
- IC50 [1]: > 100 µM (not active)
- IC50 [2]: > 100 µM (inactive)

SMILES: COc1ccccc1Nc1nc(N)nc(CSC(=S)N2CC(C)CC(C)C2)n1 (centres undefined)
- IC50 [3]: 32 µM (active)
- EC50 [4]: > 53 µM (inactive)
- IC50 [5]: > 20 µM (inactive)

SMILES: Cc1cc(F)ccc1S(=O)(=O)Nc1ccccc1C(=O)Nc1ccccc1-c1nc2ccccc2[nH]1
- AC50 [6]: 2.02 µM (active)
- EC50 [7]: 29 µM (inactive)
- AC50 [8]: 6.59 µM (active)
- AC50 [9]: 12.1 µM (active)
- AC50 [10]: 23.2 µM (active)
- AC50 [11]: 9.69 µM (active)

SMILES: CCn1c2ccccc2c2cc(NC(=O)CSc3nc(C)cc(=O)[nH]3)ccc21
- CC50 [12]: 41.1 µM (active)
- CC50 [13]: 56 µM (active)

SMILES: COc1ccc(S(=O)(=O)Nc2ccncc2)cc1OC
- IC50 [1]: > 100 µM (not active)
- IC50 [2]: > 100 µM (inactive)

SMILES: O=C1c2c(Cl)c(Cl)c(Cl)c(Cl)c2C(=O)N1c1nnc(CCc2ccccc2)[nH]1
- IC50 [1]: > 100 µM (not active)
- IC50 [2]: > 100 µM (inactive)

SMILES: O=c1oc2ccccc2cc1-c1cn2ccccc2n1
- EC50 [14]: > 79.4 µM (not active)
- EC50 [15]: > 79.4 µM (not active)
- EC50 [16]: > 79.4 µM (not active)
- EC50 [17]: 11 µM (active)
- EC50 [18]: 2.92 µM (active)
- EC50 [19]: 17.1 µM (active)
- EC50 [20]: 3.59 µM (active)
- AC50 [9]: 3.64 µM (active)
- AC50 [10]: > 70 µM (inactive)
- AC50 [11]: 20.3 µM (active)

SMILES: COc1ccc(C2=CSC3=NCCN23)cc1F
- IC50 [21]: > 64 µM (inactive)
- IC50 [22]: > 50 µM (inactive)

SMILES: CC(C)CC(=O)N1CCN(Cc2cccc(F)c2)CC1
- IC50 [21]: > 64 µM (inactive)

SMILES: CCOC(=O)CSc1nc2ccc(Nc3nc(N4CCOCC4)nc(N4CCOCC4)n3)cc2s1
- EC50 [23]: > 300 µM (not active)
- EC50 [24]: > 300 µM (not active)
- IC50 [25]: > 64.6 µM (inactive)
- IC50 [26]: > 64.6 µM (inactive)

— ChEMBL document CHEMBL1201862, “PubChem BioAssay data set” (2004)
